Reference: PubChem BioAssay (NCI)
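How tested: cells in 96-well plates exposed to compound for 48 hours at five concentrations. The concentration for full growth arrest is given as TGI.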

Columns and labels:
Assay in all cases: NCI anticancer screen, dose series, 48 h
[1] = test system: SF-539 CNS
[2] = test system: HOP-62 NSCLC
[3] = test system: A549 NSCLC
[4] = test system: CCRF-CEM leukemia
[5] = test system: OVCAR-5 ovarian
[6] = test system: IGROV1 ovarian
[7] = test system: ACHN renal
[8] = test system: A498 renal
[9] = test system: UACC-257 melanoma
[10] = test system: MALME-3M melanoma
[11] = test system: 786-0 renal

Compound	TGI [1] [µM]	TGI [2] [µM]	TGI [3] [µM]	TGI [4] [µM]	TGI [5] [µM]	TGI [6] [µM]	TGI [7] [µM]	TGI [8] [µM]	TGI [9] [µM]	TGI [10] [µM]	TGI [11] [µM]
COc1cccc(-c2nccc3c(OCc4ccccc4)c(OC)c(OC)cc23)c1	> 100	> 100	> 100	> 100	> 100	> 100	> 100	> 100	> 100	> 100	
Cn1ccnc1CCc1ccc(Cl)c(Cl)c1	> 100	> 100	> 100	> 100	> 100	> 100	> 100	> 100	> 100	> 100	> 100
CC(=O)Oc1cc(OC(C)=O)c2c(C)cc(=O)oc2c1	> 100	> 100	> 100	> 100	> 100	> 100	> 100	> 100	> 100	> 100	> 100
CN(C)c1ccc(/C=C/C(=O)O)cc1	> 100	> 100	> 100	> 100	> 100	> 100	> 100	> 100	> 100	> 100	
CCOc1ccc(/C=C2\NC(=S)N(/C=C3\C(=O)Oc4ccccc4C3=O)C2=O)cc1	36.5	61.9		40.4	> 100	61.7	56.3		75.8		39.5
O=C(CSc1nnc(-c2ccc(N=Cc3ccc(Cl)cc3)cc2)o1)Nc1ccc([N+](=O)[O-])cc1		> 100	> 100	47.6			25.7		44.3	> 100	36.1
COc1c(C)c(C/C=C(\C)CC/C=C(\C)CC/C=C(\C)CCC=C(C)C)c(OC)c2ccccc12	> 100	> 100	> 100	64.1	> 100	> 100	> 100		> 100		> 100
O=[N+]([O-])c1ccc([N+]2=NC(c3ccccc3)=NN(c3ccccc3)C2)cc1	> 100	47.9	> 100	> 100	> 100	> 100	> 100		> 100	> 100	> 100
Cn1c(=O)c(C(=O)NC(=O)NCCCCCOC(=O)CCCCCCCCCCC(=O)OCCCCCNC(=O)NC(=O)c2cn(Cc3ccccc3)c(=O)n(C)c2=O)cn(Cc2ccccc2)c1=O	> 100	> 100	> 100	> 100	> 100	> 100	> 100	> 100	> 100	> 100	> 100
O=C1/C(=C/c2ccccc2)NC(=S)N1CN1CCCCC1		> 100	> 100	> 100	> 100	> 100	> 100	> 100	> 100		> 100
CCOC(=O)C(C)(C)Oc1ccc2c(-c3ccc(Cl)cc3)c(-c3ccc(Cl)cc3)c(=O)oc2c1	> 100	> 100	> 100	> 100		> 100	> 100	> 100	> 100	> 100	> 100
CCC(=O)/C(=C\I)c1ccccc1	34.3	39.7	37		3.48	4.28		32.1	16.7	3.23	3.33
CCCCn1c2ccccc2c2ccc3c(c21)C(=O)C=CC3=O	> 100	> 100	> 100		> 100	> 100	> 100	> 100	> 100	> 100	> 100
NC(=Nc1ccccc1)c1ccccc1N		> 100	> 100	> 100	> 100	> 100	> 100	> 100	> 100		> 100
COC12CCC(C(C(=O)c3ccccc3)=C1C(=O)c1ccccc1)C(O)C2 (stereo unspecified)	> 100	> 100	> 100	> 100		> 100		> 100	> 100	> 100	> 100
CCOC(=O)c1[nH]c2cccc3c2c1CC[C@H](NC(=O)C(F)(F)F)C3=O	> 100	72.5	> 100	> 100	> 100	> 100		> 100	> 100	> 100	> 100
Cc1c(-c2nnc(-c3ccccc3)o2)c(=O)n(-c2ccccc2)n1C	> 100	> 100	> 100	> 100		> 100	> 100	> 100	> 100	> 100	> 100
C=C1CCCC2[C@](C)(CC3=C(O)C(=O)C=C(OC)C3=O)[C@@H](C)CC[C@]12C (stereo partly specified)	16		11	14.6		16	47.7		16.4	9.93	18.3
